Data on three compounds can be found in patent US20240226255A9, “COMPOSITIONS AND METHODS FOR ACTIVATING NK CELLS” (The Regents of the University of California, priority 2021, published 2024).

Data set [1] has as its system vector-alone transfected HEp2 cells. As to the kind of experiment: 51Cr release: NK cell lysis of Sulindac treated vector-alone transfected HEp2 cells. The data set is classed as cell-based. The conditions noted are these: Sulindac 50-200 μm for 3-4 hours, vs non-treated HEp2 cells. On the procedure:
. (FIG. 17A) 4×10^6 vector-alone transfected HEp2 cells were labeled with ^51Cr for 1 hour at 37° C. […] Treatment of NK cells with IL-2 was carried out for 8-12 hours before their addition to the target cells. […] After an overnight incubation the cells were washed to remove the drugs, and the tumor cells were then co-cultured in the presence of untreated and IL-2 (500 u/ml) treated NK cells. After 48 hours of incubation the supernatants were removed from the NK-HEp2 cell co-cultures and assayed for released GM-CSF.

Data set [2] deals with BM cells, splenocytes, spleen-purified NK cells, oral gingiva cells. The data set is described as follows: IFN-γ ELISA of IL-2 cultured tissue cells from mice given ZOL or NaCl, then molar extraction. The note with it: for ZOL-induced decrease in IFN-γ: oral tooth extraction site. The data set is classed as in vivo. On the procedure:
(§1) 7-week old female WT mice, and female Rag2^−/− mice (B6(Cg)-Rag2tm1.1Cgn/J null mutation in recombination-activating gene-2 resulting in the deficiency of B and T lymphocytes) were purchased from the Jackson Laboratory, Bar Harbor, ME. The UCLA Animal Research Committee reviewed and approved all experimental protocols involving animals (ARC 1997-136). Female WT mice and Rag2^−/− mice were injected with the single injection of 500 μg/kg ZOL or 0.9% NaCl vehicle solution via tail vein.
(§2) After 1-week of the ZOL and NaCl injection maxillary first molar was extracted as described previously. During the extraction procedure, mice were anesthetized via continuous inhalation of 2-4% isoflurane mixed with oxygen and placed on a custom-made surgical table in a supine position using the fixed positioner on the maxillary incisors. Immediately prior to tooth extraction, 5.0 mg/kg carprofen was subcutaneously injected, and mice received 5.0 mg/kg carprofen injection every 24 h for 48 h. Mice were sacrificed and various tissues were studied 4-weeks after the tooth extraction.
Single cell-suspension from each tissue of WT and Rag2^−/− female mice were activated with IL-2 (10,000 U/ml) for 5 days before the supernatants/culture media were harvested after to determine the levels of IFN-γ secretion. IFN-γ ELISAs were performed and standard curve was generated as described previously. A standard curve was generated by either two or three-fold dilution of recombinant IFN-γ provided by the manufacturer to analyze and obtain the IFN-γ concentration (Biolegend, San Diego, CA).
WT and RAG2 mice were administered with either 0.9% NaCl or ZOL (500 μg/kg) via tail vein followed by maxillary left first molar extraction as described in Materials and Methods section. Week 4 after the tooth extraction, animals were sacrificed, BM cells, splenocytes, splenocytes-purified NK cells and oral gingiva cells were cultured at (1×10^6 cells/ml) each treated with IL-2 (10000 U/ml) for 5 days, after which the supernatants were harvested and the levels of IFN-γ were determined using specific ELISA. Modulation of IFN-7 by ZOL in both WT and RAG2 mice models were determined, and fold change in comparison to NaCl controls was calculated for each tissue.
(In general: An ELISA detects its analyte on a solid surface through an enzyme-linked reagent.)

In data set [3] the test system is st63 cells. The note with it: Rag2−/− mice.
Method: RAG2 mice were administered with either 0.9% NaCl or ZOL (500 μg/kg) via tail vein followed by maxillary left first molar extraction as described in Materials and Methods section. […] Week 4 after the tooth extraction, animals were sacrificed, BM cells (n=9), splenocytes (n=9), and NK cells purified from splenocytes (n=5) were cultured at (1×10^6 cells/ml) each treated with IL-2 (10000 U/ml) for 5 days, after which the cells were used as effector cells against tumor targets. Cytotoxicity assays were performed using standard 4-hour ^51Cr release assay against st63 cells, and the LU 30/10^6 cells were determined using inverse number of cells required to lyse 30% of st63 cells×100 (FIG. 16B).
Single cell-suspension from each tissue and spleen-purified NK cells from WT and Rag2^−/− mice female mice were activated with IL-2 (10,000 U/ml) for 5 days and were used as effector cells on day 5. […] After that, the supernatants were harvested from each sample and released radioactivity was counted using the gamma counter. The percentage (%) specific cytotoxicity was calculated as follows:
% Cytotoxicity=Experimental cpm−spontaneous cpm/Total cpm−spontaneous cpm • Lytic Units (LU) 30/10^6 was calculated by using the inverse of the number of effector cells needed to lyse 30% of tumor target ST63 cells×100.
Data set [4] can be described thus: Osteonecrosis of the jaw (ONJ) after ZOL injection and molar extraction. The data set is classed as in vivo. The note with it: Rag2−/− mice injected with ZOL. On the procedure:
as §1, §2

The test system of data set [5] is DCs from wild type or Cox-2flox/flox;LysMCre/+ mice. As to the kind of experiment: 4 h 51Chromium release assay of mouse NK cells ± LPS against monocyte-derived DCs. The data set is classed as cell-based. The conditions noted are these: IL-2-treated WT NK cells + WT or KO monocytes. On the procedure: (§3) Afterward, NK cells were used as effector cells in a standard 4 h ^51Chromium release assay against YAC-1 cells. […] NK cells were treated as described in (FIG. 4A) and afterward the supernatant was removed from the co-cultures and the levels of IFN-γ secretion were determined using specific ELISAs. *P<0.05 was obtained for differences in secretion of IFN-γ between untreated and LPS-treated NK cells cultured with monocytes from control littermates or those from Cox-2flox/flox;LysMCre/+ mice (FIG. 4B). NK cells were prepared as described in (FIG. 4A) and used as effector cells against DCs derived from monocytes from either wild type or Cox-2flox/flox; LysMCre/+ mice in a standard 4 h ^51Chromium release assay. […] One of several representative experiments is shown in this figure.
(§4) Similar results to those seen with YAC-1 targets were also seen when control and Cox-2flox/flox;LysMCre/+ DCs were used as targets (FIG. 4C).

Data set [6] deals with NK cells. The data set is described as follows: IFN-γ ELISA of mouse NK cell-monocyte co-cultures ± LPS. It counts as cell-based. The conditions noted are these: LPS 20 ng/mL. On the procedure: as §3, §4
Data set [7] deals with YAC-1 cells. The data set is described as follows: 4 h 51Chromium release assay of mouse NK cells cultured with monocytes ± LPS against YAC-1. It counts as cell-based. The note with it: IL-2-treated WT NK cells + monocytes from control WT littermates; LPS 20 ng/mL. As to the method: as §3, §4
Data set [8] has as its system OSCSCs. As to the kind of experiment: 4 h 51Chromium release assay of human NK cells against OSCSCs. The data set is classed as cell-based. The note with it: LPS 20 ng/mL, 24-48 h. On the procedure: (§5) Afterward, the cytotoxicity against OSCSCs was assessed using a standard 4 h ^51Chromium release assay. […] NK cells were prepared as described in FIG. 5A. […] One of several representative experiments is shown in this figure.
(§6) Human NK cells were purified from healthy donors and left untreated or treated with IL-2 (1000 U/mL) or the combination of IL-2 (1000 U/mL) and anti-CD16mAb (3 μg/mL) in the presence of sAJ2 (NK cell:sAJ2, 1:3), autologous monocytes (NK cell:monocytes, 1:1) or the combination of sAJ2 (NK cell:sAJ2, 1:3) and autologous monocytes (NK cell:monocytes, 1:1) for 24-48 h. Afterward, the cytotoxicity against OSCSCs cells was assessed using a standard 4 h ^51Chromium release assay. […] NK cells were prepared as described in FIG. 6A and after the treatment period, the supernatants were removed from the co-cultures and the levels of IFN-γ cytokine were measured with specific ELISA. *P<0.05 was obtained for the differences in cytotoxicity and IFN-γ secretion between human NK cells cultured in media and those treated with sAJ2, monocytes or the combination of sAJ2 and monocytes. One of several representative experiments is shown in this figure (FIG. 8B). […] After an overnight incubation, the supernatants were collected and the levels of IFN-γ, IL-15, IFN-α, and IL-12 were determined by ELISAs in a multiplexed format using Luminex technology (FIG. 8C). […]

The subject of data set [9] is NK cells. The data set is described as follows: IFN-γ ELISA of human NK cell cultures. The note with it: LPS 20 ng/mL, 24-48 h. It counts as cell-based. As to the method:
as §5, §6

With `CC1=C(CC(=O)O)c2cc(F)ccc2/C1=C\c1ccc([S+](C)[O-])cc1` (stereo not shown) [Sulindac], the “NK cell lysis of treated HEp2 cells” value in data set [1] was “increased lysis”.
As to `O=P(O)(O)C(O)(Cn1ccnc1)P(=O)(O)O` [ZOL, zolendronate], the “ZOL-induced increase in IFN-γ” value in data set [2] (BM, Rag2−/− mice) was 50-75%; in data set [2] (BM, WT mice), 300-500%; in data set [2] (NK cells purified from splenocytes, WT mice), 20-90%; in data set [2] (splenocytes, WT mice), 100-240%. For the same compound, the “IFN-γ secretion after ZOL injections” value in [2] (BM, Rag2−/− mice, vs NaCl) is reported as “significantly increased”. Further, the “Fold change in IFN-γ secretion (ZOL group/NaCl group)” value is reported as 1.5-1.75 fold in data set [2] (Bone marrow, Rag2−/− (Rag KO) mice, ZOL 500 μg/kg); 4-6 fold in data set [2] (Bone marrow, WT mice, ZOL 500 μg/kg tail vein, week 4 after tooth extraction, cells + IL-2 5 days); 0.22-0.35 fold in data set [2] (Gingiva, Rag2−/− (Rag KO) mice, ZOL 500 μg/kg); 0.3-0.5 fold in data set [2] (Gingiva, WT mice, ZOL 500 μg/kg); 0.5-0.66 fold in [2] (Spleen, Rag2−/− (Rag KO) mice, ZOL 500 μg/kg); 2-3.4 fold in [2] (Spleen, WT mice, ZOL 500 μg/kg). Also, the “Fold change in IFN-γ secretion (ZOL group/NaCl group)” value is 0.35-0.42 fold in data set [2] (Spleen-purified NK cells, Rag2−/− (Rag KO) mice, ZOL 500 μg/kg) and 1.2-1.9 fold in [2] (Spleen-purified NK cells, WT mice, ZOL 500 μg/kg). Further, the “ZOL-induced drop in IFN-γ” value in data set [2] (NK cells purified from splenocytes, Rag2−/− mice) is on record as 58-65%; in data set [2] (splenocytes, Rag2−/− mice) it was 34-50%. Besides, the “ZOL-induced decrease in IFN-γ” value is 65-78% in data set [2] (Rag2−/− mice) and 50-70% in data set [2] (WT mice). For the same compound, in data set [2] (spleen, spleen-purified NK cells and oral gingiva cells, Rag2−/− mice), the “secretion of IFN-γ after ZOL intake” value is recorded as “blocked”. The “NK cell-mediated cytotoxicity after ZOL injections” value in data set [3] (BM, vs NaCl) is given as “significantly increased”. The “NK cell-mediated cytotoxicity with ZOL” value in [3] (spleen and spleen-purified NK cells) is reported as “blocked”. In [4], the ONJ result is “no ONJ was seen”.
Regarding Lipopolysaccharide [LPS], in data set [5], the “NK cell cytotoxicity against wild type and Cox-2flox/flox;LysMCre/+ DCs” value was “decreased”. For the same compound, the IFN-γ secretion result was “increasing IFN-γ secretion significantly” in data set [6] (IL-2-treated WT NK cells + monocytes from Cox-2flox/flox;LysMCre/+ mice) and “increasing” in data set [9]. Further, the “amount of IFN-γ secreted by the NK cells” value in [6] (IL-2-treated WT NK cells + monocytes from control WT littermates) was “increased”. Moreover, the “NK cells' ability to lyse YAC-1 cells” value in [7] is recorded as “complete shutdown”. The “NK cell-mediated cytotoxicity against OSCSCs” value in [8] is listed as “loss”.
